The structures appear in SMILES notation.

The subject of data set [1] is Harlan Sprague-Dawley rat pups. In words: Rat pup isolation-induced ultrasonic vocalization test. The data set is classed as in vivo. The conditions noted are these: for anxiolytic activity (ultrasonic vocalizations emitted by rat pups): dose levels of 0.3 and 1 mg/kg s.c. How it is done: Harlan Sprague-Dawley rat pups (male and female) were housed in polycarbonate cages with the dam until 9-11 days old. Thirty minutes before testing, pups were removed from the dam, placed into a new cage with a small amount of home bedding and brought into the lab and placed under a light to maintain body temperature at 37° C. Pups were then weighed, sexed, marked and returned to the litter group until behavioral assessment. Testing took place in a Plexiglas recording chamber that contained a metal plate maintained at (18-20° C.) with a 5×5 cm grid drawn on the plate. A microphone was suspended 10 cm above the plate to record ultrasonic vocalizations. Ultrasonic calls were recorded using the Noldus UltraVox system providing online analysis of the frequency and duration of calls. The number of grid cells entered by the pup was also collected by visual scoring. […] Immediately following the collection of the baseline measures, pups were injected with vehicle or drug subcutaneously at the nape of the neck and returned to its littermates. Thirty minutes later, pups were retested on each of the dependent measures (vocalization and grid cell crossings) to assess drug effects. Unless otherwise specified, each pup was used only once. Baseline differences and percent change from baseline for the frequency of ultrasonic vocalizations and grid cell crossings were analyzed using a one-way ANOVA. Bonferroni/Dunn post hoc comparisons were performed to assess the acute drug effects with vehicle control. Log-probit analysis was used to estimate the dose (milligrams per kilogram) of each agonist predicted to inhibit isolation-induced ultrasonic vocalizations by 50% (ID50). All comparison were made with an experimental type I error rate (α) set at 0.05.
Doses for each drug were administered in an irregular order across several litters. S-6-hydroxy-buspirone and racemic 6-hydroxy-buspirone were dissolved in physiological saline (0.9% NaCl; vehicle). All injections were administered subcutaneously in a volume of 10 ml/kg. Doses of the drug refer to weight of the salt.

Data set [2] in a line: Pharmacokinetic studies with 6-hydroxy-buspirone, clearance from the bloodstream. The conditions noted are these: in vivo.
In a further data set the target is T1, human 5-HT1A receptor (Homo sapiens, UniProt P08908).
T1 construct: expressed in transfected cells; host or cells: HEK293 cells
T1 sequence (P08908 1-422): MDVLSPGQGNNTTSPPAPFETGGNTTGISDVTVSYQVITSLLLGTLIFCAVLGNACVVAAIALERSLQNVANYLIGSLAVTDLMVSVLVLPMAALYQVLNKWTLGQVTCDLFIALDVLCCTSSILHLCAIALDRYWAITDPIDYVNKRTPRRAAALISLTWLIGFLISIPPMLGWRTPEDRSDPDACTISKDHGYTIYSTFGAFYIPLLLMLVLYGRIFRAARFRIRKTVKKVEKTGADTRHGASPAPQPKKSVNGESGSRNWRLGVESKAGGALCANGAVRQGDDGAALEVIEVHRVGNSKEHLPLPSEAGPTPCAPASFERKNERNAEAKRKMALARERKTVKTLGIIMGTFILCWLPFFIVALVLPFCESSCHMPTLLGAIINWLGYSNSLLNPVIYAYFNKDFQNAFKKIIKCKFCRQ
The experiment in a line: 5-HT1A receptor binding assay. The conditions noted are these: preclinical studies. Here is the method: Membranes are prepared for binding using the human 5-HT1A receptor expressed in HEK293 cells. Cells are collected and ruptured using a dounce homogenizer. The cells are spun at 18000×g for 10 minutes and the pellet is resuspended in assay buffer, frozen in liquid nitrogen and kept at −80° C. until the day of the assay.
A total of 30 ug protein is used per well. The assay is carried out in 96-deep-well plates. The assay buffer is 50 mM HEPES containing 2.5 mM MgCl2 and 2 mM EGTA. The membrane preparation is incubated at 25° C. for 60 minutes with 0.1 nM to 1000 nM test compound and 1 nM 3H-8-OH-DPAT. […] serotonin serves as blocking agent to determine non-specific binding. The reaction is terminated by the addition of 1 ml of ice cold 50 mM HEPES buffer and rapid filtration through a Brandel Cell Harvester using Whatman GF/B filters. The filter pads are counted in an LKB Trilux liquid scintillation counter. IC50 values are determined using non-linear regression by Excel-fit.

Data set [3] is described as follows: Clinical studies in volunteers orally dosed with buspirone, blood plasma levels. The data set is classed as in vivo, human. The conditions noted are these: compared to buspirone blood plasma levels.

Regarding `O=C1CC2(CCCC2)[C@H](O)C(=O)N1CCCCN1CCN(c2ncccn2)CC1` [S-6-hydroxy-buspirone], the “anxiolytic activity (ultrasonic vocalizations emitted by rat pups)” value in data set [1] was “Statistically significant anxiolytic activity”. In data set [2], the “clearance from the bloodstream compared with the R-enantiomer” value is given as “cleared more slowly” and the “reduced clearance of S- over R-” value is reported as “about three-fold”.
On to `O=C1CC2(CCCC2)CC(=O)N1CCCCN1CCN(c2ncccn2)CC1` [buspirone], for which the “affinity for the human 5-HT1A receptor” value at human 5-HT1A receptor is listed as “strong affinity”.
Consider `O=C1CC2(CCCC2)C(O)C(=O)N1CCCCN1CCN(c2ncccn2)CC1` (racemic) [6-hydroxy-buspirone], for which the “time course of blood plasma levels” value in data set [3] is listed as “sustained”. The “anxiolytic activity (ultrasonic vocalizations emitted by rat pups)” value in data set [1] was “Statistically significant anxiolytic activity”. In data set [1] (functional testing), the “anxiolytic response in the rat pup ultrasonic vocalization test” value is “dose-dependent anxiolytic response”. Also, the “animal movement, measured by crossing grid boundary lines” value in data set [1] (rat pups, compared to the animals dosed with the single enantiomer) is recorded as “appeared to be reduced”. Besides, at human 5-HT1A receptor, the “affinity for the human 5-HT1A receptor” value is “strong affinity”.

The record behind these values is patent US6821976B2, “S-6-hydroxy-buspirone” (Bristol-Myers Squibb Company, priority 2001, dated 2004).
